According to US20260315609A1, “MIXED VASOPRESSIN RECEPTOR AGONIST-ANTAGONIST FOR TREATING END-STAGE LIVER DISEASE AND COMPLICATIONS ASSOCIATED THEREOF” (FERRING B.V., priority 2022, published 2026):
Positions of bridges follow the written chain, without caps; N, C: chain ends. Residues, ends and D or L forms follow the SMILES beside them.

Assays:
[1] = system: V1a, V1b, and V2 receptors; conditions: cited from earlier work
[2] = system: methionine/choline-deficient (MCD) diet rats; assay: ΔPP in methionine/choline-deficient (MCD) diet rats; assay type: in vivo, rat; conditions: 100 μg/kg, IA, MCD diet rats
[3] = system: mean arterial pressure (MAP); assay: Telemetry: ΔMAP in cynomolgus monkeys, Compound 1 (SC) versus terlipressin (IV); assay type: in vivo, cynomolgus monkey
Procedure: The in-life portion of the study was performed over multiple dosing sessions using six non-naive adult male cynomolgus monkeys. Animals were previously (3-4 weeks before study start) instrumented with indwelling pressure telemetry devices and trained to be restrained in chairs. Animals had access to food and drinking water ad libitum.
Stock solutions were diluted in saline on the day of administration. Animals with indwelling pressure telemetry devices were trained to be restrained in chairs for 8-h periods.
On the day of administration, animals were restrained, and telemetric measurements were collected continuously starting ≥2 h before administration. Baseline values of arterial pressure (diastolic and systolic), heart rate, and body temperature were obtained.
The data reported herein were collected over 19 dosing sessions of four animals each, using a total of six monkeys. Animals were repeat dosed in a crossover design with at least one animal receiving vehicle for each round; the animal receiving vehicle was varied between rounds. A 48- to 72-h washout period was used between dosing sessions. Animals were observed by camera for ~1 h before dosing (covering the baseline period) and up to 3 h after dosing.

[4] = system: methionine/choline-deficient (MCD) diet rats; assay: MAP / ΔMAP in methionine/choline-deficient (MCD) diet rats; assay type: in vivo, rat; conditions: for Δ MAP (mean): 100 μg/kg, IA, MCD diet rats
Procedure: The terlipressin dose was 100 μg/kg.
Data were evaluated as change […] from baseline.

[5] = target: T1, rV2 receptor (Rattus norvegicus, UniProt Q00788); assay: Luciferase reporter gene assay, rat V2; assay type: cell-based; conditions: read-out: % MPE
T1 construct: expressed in transfected cells; host or cells: HEK-293 cells (ATCC), transient
Procedure: (§1) Cell Lines. Studies were conducted with cell lines expressing rat (r) or human (h) Via, V1b, V2, or OT receptors. For the experiments with human receptors, human embryonic kidney (HEK)-flp-in cells stably expressing the lacZ-Zeocin™ fusion gene were used for expression of hV1a and hV1b. These cells were designed for use with the Flp-In™ expression vector containing the gene of interest (here hV1a or hV1b) and the Flp recombinase expression plasmid, pOG44. For hV2 and hOTR, HEK-293 cells transiently expressing hV2 were used.
(§2) Functional Cell-Based Assays.

[6] = system: blood lactate; assay: Blood lactate concentration, anesthetized Wistar rats, IV infusion; assay type: in vivo, rat
Procedure: This study was performed over multiple experiments using a total of 48 adult male Wistar rats. […] Compounds were infused via an IV catheter at six sequentially increasing doses. A group of vehicle-administered animals received vehicle throughout the study and data were reported from intervals timed analogously with the dose-response in compound 1-administered animals.
(§3) On the day of experimentation animals were anesthetized and instrumented. A tracheostomy was performed to allow assisted respiration and three catheters were placed. Laser Doppler probes were positioned on a shaved portion of the animal's lower abdominal skin for blood-flow measurements. Ventilation was initiated, and baseline readings for the primary parameter of skin blood flow (SBF) were recorded. Readings for the secondary parameters were also recorded: (1) blood lactate concentration, (2) mean arterial pressure (MAP), and (3) blood pH. Data collection was performed continuously for SBF and MAP using NOTOCORD-hem™ (Instem), and blood samples were taken at each compound dose and immediately analyzed using an i-STAT® meter.

[7] = target: T2, rOTR (Rattus norvegicus, UniProt P70536); assay: Luciferase reporter gene assay, rat OT; assay type: cell-based; conditions: read-out: % MPE
T2 construct: expressed in transfected cells
T2 sequence (P70536 1-388): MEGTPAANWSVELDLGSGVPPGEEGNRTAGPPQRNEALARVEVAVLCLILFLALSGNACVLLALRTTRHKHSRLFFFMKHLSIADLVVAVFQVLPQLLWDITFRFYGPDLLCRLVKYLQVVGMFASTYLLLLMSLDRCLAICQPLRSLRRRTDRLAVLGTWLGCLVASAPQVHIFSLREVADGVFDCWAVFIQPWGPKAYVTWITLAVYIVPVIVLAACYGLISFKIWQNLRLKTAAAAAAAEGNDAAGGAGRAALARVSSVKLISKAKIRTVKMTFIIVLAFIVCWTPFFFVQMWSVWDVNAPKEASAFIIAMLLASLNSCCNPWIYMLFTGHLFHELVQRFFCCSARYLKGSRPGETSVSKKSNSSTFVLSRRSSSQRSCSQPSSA
Procedure: as §1, §2

[8] = system: skin blood flow (SBF); assay: Skin blood flow (SBF), laser Doppler, anesthetized Wistar rats, IV infusion; assay type: in vivo, rat
Procedure: This study was performed over multiple experiments using a total of 48 adult male Wistar rats. […] Compounds were infused via an IV catheter at six sequentially increasing doses.
as §3
After the final dose administration, animals were euthanized and a final SBF measurement was recorded to detect any signal from the flow probe after the animal's heart stopped beating to control for a signal not attributed to blood flow. Animal body temperature, pulse, and ventilation adequacy were monitored throughout the procedure.

T1 sequence (Q00788 whole entry): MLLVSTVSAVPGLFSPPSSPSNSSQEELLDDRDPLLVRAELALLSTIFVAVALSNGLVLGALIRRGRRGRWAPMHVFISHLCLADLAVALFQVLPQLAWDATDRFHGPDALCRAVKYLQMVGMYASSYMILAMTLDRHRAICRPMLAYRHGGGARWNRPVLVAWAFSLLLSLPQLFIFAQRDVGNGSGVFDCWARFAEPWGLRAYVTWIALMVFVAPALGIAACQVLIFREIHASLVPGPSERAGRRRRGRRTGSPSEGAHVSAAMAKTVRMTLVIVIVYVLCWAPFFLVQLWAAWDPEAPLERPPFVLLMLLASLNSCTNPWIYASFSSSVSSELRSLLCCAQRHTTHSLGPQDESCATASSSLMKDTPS

In the case of NCCCC[C@H](NC(=O)[C@@H]1CCCN1C(=O)[C@@H]1CSSC[C@H](NC(=O)CNC(=O)CNC(=O)CN)C(=O)N[C@@H](Cc2ccc(O)cc2)C(=O)N[C@@H](Cc2ccccc2)C(=O)N[C@@H](CCC(N)=O)C(=O)N[C@@H](CC(N)=O)C(=O)N1)C(=O)NCC(N)=O [Terlipressin, reference compound] (H-GGGCYFQNCPKG-NH2; disulfide 4-9), the serious adverse events ([1]; gastrointestinal disorders, sepsis, respiratory failure) is given as “associated with serious adverse events”, the “effect on ascites formation” value ([1]; non-selective full agonist, continuous i.v. infusion) is given as “reduced ascites formation” and the short-term mortality ([1]; plus albumin, HRS-AKI, versus placebo) is given as “reduces short-term mortality”. For the same molecule, the “Δ PP (mean)” value ([2]; 0 min) was 0.0 mmHg, the “Δ PP (mean)” value ([2]; 1 min) was −1.5 mmHg and the “Δ PP (mean)” value ([2]; 2 min) was −2.1 mmHg. The “Δ PP (mean)” value ([2]; 3 min) was −2.3 mmHg, the “Δ PP (mean)” value ([2]; 5 min) was −2.4 mmHg and the “Δ PP (mean)” value ([2]; 7 min) was −2.5 mmHg. For the same molecule, the “Δ PP (mean)” value ([2]; 10 min) was −2.4 mmHg, the “Δ PP (mean)” value ([2]; 15 min) was −2.5 mmHg and the “Δ PP (mean)” value ([2]; 20 min) was −2.6 mmHg. For the same molecule, the “Δ PP (mean)” value ([2]; 30 min) was −2.5 mmHg, the “Δ PP (mean)” value ([2]; 60 min) was −2.8 mmHg and the “Δ PP (mean)” value ([2]; 90 min) was −0.8 mmHg. The “average increase in MAP, 30 min to 5 h” value ([3]; IV 0.03 mg/kg) was 6.0 mmHg, the “maximum MAP values (increase from baseline)” value ([3]; IV 0.03 mg/kg (vehicle 22.2)) was 29.6±3.6 mmHg and the “average increase in MAP, 30 min to 5 h” value ([3]; IV 0.09 mg/kg) was 5.8 mmHg. The “maximum MAP values (increase from baseline)” value ([3]; IV 0.09 mg/kg (vehicle 22.2)) was 29.9±6.2 mmHg, the “average increase in MAP, 30 min to 5 h” value ([3]; IV 0.17 mg/kg) was 14.6 mmHg and the “maximum MAP values (increase from baseline)” value ([3]; IV 0.17 mg/kg (vehicle 22.2)) was 50.8±5.6 mmHg. For the same molecule, the “average increase in MAP, 30 min to 5 h” value ([3]; IV 0.34 mg/kg) was 14.7 mmHg, the “maximum MAP values (increase from baseline)” value ([3]; IV 0.34 mg/kg (vehicle 22.2)) was 41.2±7.5 mmHg and the “time of maximum ΔMAP” value ([3]; IV, all groups) was 5 to 30 min. The “ΔMAP by 150 min” value ([3]; IV, all groups) was “negligible”, the “Δ MAP (mean)” value ([4]; 0 min) was 0.0 mmHg and the “Δ MAP (mean)” value ([4]; 1 min) was 6.1 mmHg. The “Δ MAP (mean)” value ([4]; 10 min) was 32.0 mmHg, the “Δ MAP (mean)” value ([4]; 90 min) was 5.2 mmHg and the “rapid increase in MAP, up to” value ([4]; intra-arterial, FIG. 34) was “about 35 mmHg”.
In the case of NCCCC[C@H](NC(=O)[C@@H]1CCCN1C(=O)[C@@H]1CSSC[C@H](N)C(=O)N[C@@H](Cc2ccc(O)cc2)C(=O)N[C@@H](Cc2ccccc2)C(=O)N[C@@H](CCC(N)=O)C(=O)N[C@@H](CC(N)=O)C(=O)N1)C(=O)NCC(N)=O [Lysine vasopressin (LVP), Lysine vasopressin], the receptor agonism type ([1]; V1a, V1b, and V2 receptors) is given as “full agonist”.
Molecule NC(=O)CC[C@@H]1NC(=O)[C@H](Cc2ccccc2)NC(=O)[C@H](Cc2ccc(O)cc2)NC(=O)[C@@H](N)CSSC[C@@H](C(=O)N2CCC[C@H]2C(=O)N[C@@H](CCCN=C(N)N)C(=O)NCC(N)=O)NC(=O)[C@H](CC(N)=O)NC1=O [AVP, arginine vasopressin, reference compound] has an Emax [5] of 98%, a blood lactate concentration ([6]; 3 pmoL/kg/min IV) of 1.34 mM and a blood lactate concentration ([6]; 600 pmoL/kg/min IV) of 4.27 mM. For the same molecule, the “increase in blood lactate levels” value ([6]; IV) was at least 2 fold, the “effect on blood lactate concentration” value ([6]; IV, up to maximum dose tested) was “significantly elevated” and the Emax [7] was 82%. The “SBF ED50” value [8] was 12.6 pmol/kg/min, the “decrease in skin blood flow, approximate maximum” value [8] was “about 90%” and the “greatest percent change from baseline in skin flow” value [8] was −89.5%.
